We go through three compounds from US7071203B2, “Pharmaceutically acceptable salts of 20(s)-camptothecins” (Dr. Reddy's Laboratories Limited, priority 2001, dated 2006).

SMILES strings stand for the structures. Where a name gives a salt, the structure may show the parent alone. Read-outs that look alike come from different tables or passages of the source.

The test system of one series is PA-1. Kind of series: Sulforhodamine B growth inhibition, ovarian cell line PA-1. Type of series: cell-based, human. The note with it: OVARIAN: PA-1, 48 h. The method, then:
(§1) Each test compound was screened against a battery of cell lines representing eight different types of cancers. In a typical procedure, 1×10^4 cells were seeded into each well of 96 well plate in 100 μL volume of RPMI 1640 medium containing antibiotics and 10% FCS.
(§2) The plates were incubated at 37° C. in presence of CO2. After 24 h, test compounds were evaluated at five 10-fold dilutions ranging from 100 to 0.01 μM. To each test well 100 μL of test compound solution was added and medium with vehicle was added to control wells and the plates were further incubated. After 48 h of incubation, plates were terminated by Sulforhodamine B method.
(§3) The optical density, which is proportional to protein mass, is then read by automated spectrophotometric plate reader at a wavelength of 515 nm. Readings were transferred to a microcomputer and mean 50% Growth Inhibition (GI50) and mean Total Growth Inhibition were calculated.

A further series deals with UACC-62. Kind of series: Sulforhodamine B growth inhibition, melanoma cell line UACC-62. Type of series: cell-based, human. To be noted: for GI50: Homo sapiens, read-out: Growth Inhibition (GI 50). The method, then: as §1, §2, §3
A short description of series [1]: Single dose oral pharmacokinetic studies. Format: in vivo, Male Swiss Albino Mice. The method, then:
Male Swiss Albino Mice (20–30 g) were used in the experiments. The animals were maintained under standard laboratory conditions and had free access to feed and water ad libitum. Before experimentation animals were fasted overnight (˜15 h) during which they had free access to water ad libitum.
An amount equivalent to 10 mg of drug was weighed accurately and transferred into a clean mortar and triturated to obtain a fine powder. To this 500 μl of DMSO (10%) was added to obtain a clear solution. To this 4.5 ml of sodium carboxy methyl cellulose (sodium CMC) was added to make up the volume to 5 ml. Based on the animal weight appropriate volume (body weight in grams×10=no. of μl of dose to be given) of the prepared solution was administered through oral gavage.
After dosing, at designated time points (0.5, 1, 2, 3, 5, 8 and 12 h) 100 μl of blood was collected from retro orbital plexus into 0.5 ml eppendorff tubes containing EDTA (5 μl of 200 mg/ml solution in Milli Q water). Blood was centrifuged at 12,800 rpm for 2 min and plasma was separated and immediately taken for analysis, without delay, in order to estimate both lactone and carboxylate forms of the compound.
50 μl plasma was transferred into a clean 2 ml micro centrifuge tube. To this ice cold methanol was added (450 μl) and vertex mixed for 15 sec to extract the compound. These contents were centrifuged for 2 min at 12,800 rpm dry centrifuge tube. Clear supernatant was separated in to a 300 μl of auto sampler vial maintained at 4° C. and 20 μl of this was injected into HPLC column. HPLC Conditions:
HPLC system (Shimadzu) consisted of system controller (SCL-10AVP), Isocratic pump (LC-10ATVP), auto sampler (SIL-10ADVP), fluorescence detector (RF-10AXL) and column oven at 25° C. (CTO-1OASVP) was controlled by Class-VP software. Sample was eluted through column (Supelcosil-LC318, 5μ, 4.6×250 mm, 300° A) with mobile phase [1% TEAA (pH=5.5):Acetonitrile:MeOH::80:15:5) pumped at 1.0 ml/min flow rate and eluent was detected using fluorescence detector set at Ex. 370 nm/Em. 537 nm. The approx. RTs were carboxylate (CA1=4.1 min, CA2=4.8 min) and lactone (LA1=7.9 min, LA2=11.6 min).
For the determination of drug concentration, peak area ratios of the drug to internal standard versus the concentration (range: 0.05–10 μg/ml) for both carboxylate and lactone forms were plotted separately and linear regression was applied using software “Sigma Plot” (Jandel Scientific version, 2.0, USA). Correlation coefficients (r^2) of 0.99 or better were obtained.
Pharmacokinetic parameters were calculated for both carboxylate and lactone forms separately by non-compartmental model analysis. The peak plasma concentration (Cmax) and the corresponding time (Tmax) were directly obtained from the raw data. The area under the plasma concentration versus time curve up to the last quantifiable time point, AUC(0-t) was obtained by the linear and log-linear trapezoidal summation. The AUC(0-t) extrapolated to infinity (i.e., AUC (0-∞)) by adding the quotient of Clast/Kel, where Clast represents the last measurable time concentration and Kel represents the apparent terminal rate constant. Kel was calculated by the linear regression of the log-transformed concentrations of the drug in the terminal phase. The half-life of the terminal elimination phase was obtained using the relationship t1/2=0.693/ Kel.

The next series concerns DU-145. Kind of series: Sulforhodamine B growth inhibition, prostate cell line DU-145. Format: cell-based, human. The note with it: for GI50: Homo sapiens, read-out: Growth Inhibition (GI 50). The method, then:
as §1, §2, §3

In another series the test system is MCF 7. Kind of series: Sulforhodamine B growth inhibition, breast cell line MCF 7. Type of series: cell-based, human. The method, then: as §1, §2, §3
Another series concerns H 522. As to the kind of experiment: Sulforhodamine B growth inhibition, lung cell line H 522. Format: cell-based, human. The method, then:
as §1, §2, §3

For a further series, the system named is SW-620. Kind of series: Sulforhodamine B growth inhibition, colon cell line SW-620. To be noted: COLON: SW-620, 48 h. Format: cell-based, human. The method, then:
as §1, §2, §3

The next series relates to U251. As to the kind of experiment: Sulforhodamine B growth inhibition, CNS cell line U251. Type of series: cell-based, human. The method, then:
as §1, §2, §3

The subject of the next series is PC-3. Kind of series: Sulforhodamine B growth inhibition, prostate cell line PC-3. Format: cell-based, human. The note with it: PROSTATE: PC-3, 48 h. The method, then:
as §1, §2, §3

A further series has as its system SKOV-3. As to the kind of experiment: Sulforhodamine B growth inhibition, ovarian cell line SKOV-3. Type of series: cell-based, human. The method, then:
as §1, §2, §3

The next series concerns MCF-7/ADR. As to the kind of experiment: Sulforhodamine B growth inhibition, breast cell line MCF-7/ADR. Type of series: cell-based, human. The note with it: 48 h; for GI50: Homo sapiens, NCI/ADR-RES, read-out: Growth Inhibition (GI 50). The method, then: as §1, §2, §3
For another series, the system named is A 498. Kind of series: Sulforhodamine B growth inhibition, renal cell line A 498. Format: cell-based, human. The method, then:
as §1, §2, §3

A further series relates to ACHN. Kind of series: Sulforhodamine B growth inhibition, renal cell line ACHN. Type of series: cell-based, human. The note with it: 48 h; for GI50: Homo sapiens, read-out: Growth Inhibition (GI 50). The method, then:
as §1, §2, §3

The next series has as its system OVCAR-8. As to the kind of experiment: Sulforhodamine B growth inhibition, ovarian cell line OVCAR-8. Type of series: cell-based, human. The note with it: OVARIAN: OVCAR-8, 48 h; for GI50: Homo sapiens, read-out: Growth Inhibition (GI 50). The method, then:
as §1, §2, §3

Another series deals with SF-268. Kind of series: Sulforhodamine B growth inhibition, CNS cell line SF-268. Type of series: cell-based, human. To be noted: CNS: SF-268, 48 h; for GI50: Homo sapiens, read-out: Growth Inhibition (GI 50). The method, then:
as §1, §2, §3

In another series the test system is HOP-62. As to the kind of experiment: Sulforhodamine B growth inhibition, lung cell line HOP-62. Format: cell-based, human. The note with it: LUNG: HOP-62, 48 h; for GI50: Homo sapiens, read-out: Growth Inhibition (GI 50). The method, then: as §1, §2, §3
Setting [2] is: Homo sapiens, read-out: Growth Inhibition (GI 50).
Where [3] appears, read: MELANOMA: UACC-62, 48 h, Sulforhodamine B.
[4] abbreviates: Lactone, single oral dose, mice, plasma, n = 3.
The mark [5] stands for this setting: male, Swiss Albino, mouse, in vivo, po.
Where [6] appears, read: PROSTATE: DU-145, 48 h, Sulforhodamine B.
Setting [7] is: BREAST: MCF-7/ADR, Sulforhodamine B.

As a reminder, the AUC(0-inf) is total exposure, with the tail of the curve extrapolated. A high value points to high exposure. What is called AUC(0-t) is the area under the concentration-time curve up to a stated or last time point. Lower therefore signals less exposure. As a reminder, the Tmax is the time at which the peak concentration occurs. Consider `CC[C@@]1(O)C(=O)OCc2c1cc1n(c2=O)C(OCCF)c2cc3c(CN(C)C)c(O)ccc3nc2-1` (stereo partly drawn) [Example 3, 10-Hydroxy-9-N,N-dimethylaminomethyl-5-(2′-fluoroethoxy)-20(S)-camptothecin hydrochloride], for which the GI50 worked out at 1000 nM in the series on PA-1 (setting [2]); 1500 nM in the series with UACC-62 (setting [3]); 4 µM with DU-145 (setting [6]); 7.5 µM in the series on MCF 7 (Homo sapiens, MCF7, BREAST: MCF 7, 48 h, read-out: Growth Inhibition (GI 50)); 900 nM in the series on H 522 (Homo sapiens, NCI-H522, LUNG: H 522, 48 h, read-out: Growth Inhibition (GI 50)); 60 µM in the series with SW-620 (setting [2]). Also, the GI50 was found to be 1500 nM with U251 (Homo sapiens, U-251, 48 h, read-out: Growth Inhibition (GI 50)); 9 µM in the series on PC-3 (setting [2]); 6 µM in the series on SKOV-3 (Homo sapiens, SK-OV-3, OVARIAN: SKOV-3, 48 h, read-out: Growth Inhibition (GI 50)); 8 µM with MCF-7/ADR (setting [7]); 700 nM in the series with A 498 (Homo sapiens, A498, RENAL: A 498, 48 h, read-out: Growth Inhibition (GI 50)). Further, the “Total Growth Inhibition (TGI)” value in the series on PA-1 was 5.0 µM; with UACC-62 (setting [3]), 8.0 µM; with DU-145 (setting [6]) it was above 100 µM; in the series on MCF 7 (BREAST: MCF 7, 48 h) it was 10.0 µM; in the series with H 522 (LUNG: H 522, 48 h) it was 90.0 µM; in the series with SW-620, above 100 µM. Moreover, the “Total Growth Inhibition (TGI)” value in the series with U251 (48 h) is above 100 µM; in the series with PC-3, above 100 µM; in the series on SKOV-3 (OVARIAN: SKOV-3, 48 h), 40.0 µM; in the series with MCF-7/ADR (setting [7]), above 100 µM; with A 498 (RENAL: A 498, 48 h) it was 15.0 µM. In addition, in [1] (setting [4]), the Kel is 0.19 h⁻¹. Besides, the “T1/2β(4,6,8h)^@” value in series [1] (setting [4]) stood at 7.04 h. Further, the AUC(0-inf) in [1] (setting [5]) is 9.74 µM·h. In series [1] (setting [5]), this compound showed an AUC(0-t) of 6.1 µM·h. The “AUC(0–t)” value in series [1] (setting [5]) is 11.05 µM·h. In series [1] (setting [5]), the “AUC(0–∞)” value came to 15.14 µM·h. In addition, the Tmax in [1] (setting [5]) was determined as 15 min.
Consider `CC[C@@]1(O)C(=O)OCc2c1cc1n(c2=O)C(OCCO)c2cc3c(CN(C)C)c(O)ccc3nc2-1` (stereo partly drawn) [Example 2, 10-Hydroxy-9-N,N-dimethylaminomethyl-5-(2′-hydroxyethoxy)-20(S)-camptothecin hydrochloride], for which the “Total Growth Inhibition (TGI)” value in the series on ACHN is 40.0 µM; in the series with UACC-62 (setting [3]), 6.0 µM; in the series on DU-145 (setting [6]), 25.0 µM; in the series on OVCAR-8 it was 80.0 µM; in the series with SF-268 it was above 100 µM; with MCF-7/ADR (setting [7]), 50.0 µM. Besides, in the series with HOP-62, the “Total Growth Inhibition (TGI)” value is above 100 µM. The GI50 in the series with ACHN came to 4000 nM; with UACC-62 (UACC-62, 48 h) it was 6000 nM; in the series on DU-145 (DU-145, 48 h), 5.5 µM; in the series on OVCAR-8, 1000 nM; in the series on SF-268, 7.5 µM; in the series on MCF-7/ADR, 7.5 µM. Besides, in the series with HOP-62, the GI50 amounted to 8 µM.
Consider `CC[C@@]1(O)C(=O)OCc2c1cc1n(c2=O)C(O)c2cc3c(CN(C)C)c(O)ccc3nc2-1` (stereo partly drawn) [Example 1, 10-Hydroxy-9-N,N-dimethylaminomethyl-5-hydroxy-20(S)-camptothecin hydrochloride], for which the “Total Growth Inhibition (TGI)” value is 1.0 µM in the series with ACHN; 4.5 µM with UACC-62 (setting [3]); 0.8 µM in the series with DU-145 (setting [6]); above 100 µM in the series on OVCAR-8; 90.0 µM in the series on SF-268; 0.9 µM in the series on MCF-7/ADR (setting [7]). Also, in the series on HOP-62, the “Total Growth Inhibition (TGI)” value came out at 25.0 µM. The GI50 turned out to be 400 nM in the series with ACHN; 700 nM in the series on UACC-62 (UACC-62, 48 h); 0.4 µM with DU-145 (DU-145, 48 h); 500 nM in the series on OVCAR-8; 0.55 µM with SF-268; 0.25 µM in the series with MCF-7/ADR. In addition, in the series with HOP-62, the GI50 is 0.6 µM.
